In PubChem BioAssay (NCI):
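Where inhibition never reached the appropriate level, the endpoint shown equals the highest concentration tested. Otherwise, values were interpolated linearly from a five-concentration, 48-hour dose response in 96-well plates. At the GI50, growth is halved. TGI is the concentration that stops growth completely.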

Columns and labels:
Test in all cases: DTP human tumour cell line panel, 48 h
CCRF-CEM leukemia = tested on: CCRF-CEM leukemia
NCI-H226 lung = tested on: NCI-H226 lung
UACC-62 melanoma = tested on: UACC-62 melanoma
MOLT-4 leukemia = tested on: MOLT-4 leukemia
UO-31 renal = tested on: UO-31 renal
PC-3 prostate = tested on: PC-3 prostate
OVCAR-4 ovarian = tested on: OVCAR-4 ovarian
BT-549 breast = tested on: BT-549 breast
NCI/ADR-RES ovarian = tested on: NCI/ADR-RES ovarian
IGROV1 ovarian = tested on: IGROV1 ovarian

| SMILES | GI50 (CCRF-CEM leukemia) [µM] | TGI (CCRF-CEM leukemia) [µM] | GI50 (NCI-H226 lung) [µM] | TGI (NCI-H226 lung) [µM] | GI50 (UACC-62 melanoma) [µM] | TGI (UACC-62 melanoma) [µM] | GI50 (MOLT-4 leukemia) [µM] | GI50 (UO-31 renal) [µM] | TGI (UO-31 renal) [µM] | GI50 (PC-3 prostate) [nM] | TGI (PC-3 prostate) [µM] | GI50 (OVCAR-4 ovarian) [µM] | TGI (OVCAR-4 ovarian) [µM] | GI50 (BT-549 breast) [µM] | TGI (BT-549 breast) [µM] | GI50 (NCI/ADR-RES ovarian) [µM] | TGI (NCI/ADR-RES ovarian) [µM] | GI50 (IGROV1 ovarian) [µM] | TGI (IGROV1 ovarian) [µM] | TGI (MOLT-4 leukemia) [µM] |
| --- | --- | --- | --- | --- | --- | --- | --- | --- | --- | --- | --- | --- | --- | --- | --- | --- | --- | --- | --- | --- |
| COc1ccc(-c2ccc(/C=C/C(=O)NO)cc2)cc1 | 0.0481 | > 100 | 1.09 | 4.39 | 1.15 | 3.43 | 0.375 | 0.281 | 2.14 | 1090 | 12.3 | 0.362 | 4.44 | 1.53 | 25.9 | 0.533 | 3.22 | 0.768 | 9.66 |  |
| COc1ccc(OC)c(-c2nc3sccn3c2/C=C2/C(=O)Nc3ccc(Cl)cc32)c1 | 32.1 | > 100 | 20.8 | 67.3 | 11.8 | 26.6 | 22.1 | 23.6 | 81.8 | 27200 | > 100 | 26.8 | 73.9 | 24.2 | 74.3 | 25.6 | 89.8 | 33.5 | > 100 | 69.4 |
| C=C(C=O)C1CC(=O)C(C(=O)OC)[C@@H]2O[C@@](C)(CC2=O)C[C@@H]2OC(=O)[C@]3(O[C@@H]23)[C@@H](C(=O)OC)C1 (stereo not given in full) | 5.81 | > 100 | 24.9 | > 100 | 18.1 | 44.8 | 4.2 | 19 | 48.9 | 19300 | 57.6 | 30 | 92.4 | 21.7 | 55 | 46.4 | > 100 | 4.56 | 48.3 | > 100 |
| COc1ccccc1/C=C\c1cnnc2ccccc12 |  | > 10 |  | > 10 |  | > 10 |  |  |  |  | > 10 |  | > 10 |  | > 10 |  | > 10 |  | > 10 | > 10 |
| O=C(O)c1c(O)c2cc(Br)ccc2oc1=O |  | > 100 |  | > 100 |  | > 100 |  |  |  |  | > 100 |  | > 100 |  | > 100 |  | > 100 |  | > 100 | > 100 |
| NC(=O)CCC(NC(=O)OCc1ccccc1)C(=O)OCC(=O)c1ccccc1 (stereo not given) | > 100 | > 100 | > 100 | > 100 | > 100 | > 100 | > 100 | > 100 | > 100 | > 100000 | > 100 | > 100 | > 100 | > 100 | > 100 | > 100 | > 100 | > 100 | > 100 | > 100 |
| CC1(C)N=C(N)N=C(N)N1c1cccc(C#N)c1 | 3.05 | > 100 | 7.07 | > 100 | 3.84 | > 100 | 3.21 | 5.9 | > 100 | 2660 | > 100 | > 100 | > 100 | 27.9 | > 100 | 75.9 | > 100 | 6.7 | > 100 | > 100 |
| CN(C)CCCNc1nn2c(=O)c3ccccc3nc2c2ccccc12 | 13.7 | 48.5 | 5.13 | 25.5 |  |  | 2.47 | 3.55 | 18.2 | 11700 | 36.9 | 10.4 | 22.4 | 10.9 | 45.7 | 12.3 | 35.5 | 6.19 | 47.8 | 7.16 |
| O=P(Oc1ccc(Cl)cc1)(Oc1ccc(Cl)cc1)N1CC1 |  | 0.429 |  | > 10 |  | > 10 |  |  | > 10 |  | > 10 |  | > 10 |  | > 10 |  | > 10 |  |  | > 10 |
| CCSc1oc(-c2ccccc2)nc1[P+](c1ccccc1)(c1ccccc1)c1ccccc1 | 0.32 | 3.21 | 0.286 | 1.86 | 0.305 | 1.44 |  | 0.321 | 1.38 | 213 | 1.44 | 0.217 | 1.48 | 0.281 | 1.68 | 2.29 | 9.58 | 0.285 | 1.53 |  |
| CCN(CC)CCN1C(=O)c2c(c(C)c3c(oc4cc(O)ccc43)c2C)C1=O | 2.23 | 6.25 | 2.06 | 4.38 | 1.58 | 2.96 |  | 1.48 | 2.81 | 1500 | 3.22 | 1.69 | 3.37 | 1.67 | 3.19 | 1.66 | 3.26 | 1.6 | 3.17 |  |
